Assay results: paper PMC12138661, “Anti-Trypanosoma cruzi Effect of Fatty Acids from Porcelia macrocarpa Is Related to Interactions of Cell Membranes at Different Microdomains as Assessed Using Langmuir Monolayers” (ACS Omega, 2025)
In brackets after ≈: the same amount, converted by molar mass.

Experiments:
[1] = system: mammalian cells; set-up: method as in number not given; settings: literature data; ref number not given; cited from earlier work
[2] = system: T. cruzi; set-up: method as in number not given; settings: literature data; ref number not given; cited from earlier work
[3] = system: amastigote forms of T. cruzi; experiment: In vitro EC50 against intracellular amastigote forms of T. cruzi in peritoneal macrophages (Giemsa, infection index); type: cell-based; settings: Trypanosoma cruzi, Peritoneal macrophage; intracellular amastigotes, 48 h; read-out: T. cruzi EC50 AMA
Procedure: After collecting and counting the cells, they were seeded in Nunc brand 16-well plates and incubated for 18 h at 37 °C in an incubator containing 5% CO2. Nonadherent cells were then removed by washing with RPMI-1640 medium. Subsequently, the cells were infected with trypomastigotes at a ratio of 10:1 per well during an incubation period of 4 h. The mixture of compounds, previously diluted in series, was added and incubated for 48 h to determine the EC50 against amastigotes. After the incubation phase, the glass slides were fixed using MeOH for 5 min and then stained with Giemsa for 7 min. This procedure allowed for observation under a light microscope. The infection index was obtained in 200 macrophages/slide according to the formula: infected macrophages × number of amastigotes/total number of macrophages. Benznidazole was used as a standard drug. ,

[4] = system: trypomastigote forms of T. cruzi (strain Y); experiment: In vitro EC50 against trypomastigote forms of T. cruzi (resazurin viability); type: cell-based; settings: Trypanosoma cruzi; trypomastigotes, 24 h; read-out: T. cruzi EC50 TRYPO
Procedure: Trypomastigote forms (strain Y) of T. cruzi were obtained from Swiss mice (Mus musculus) previously infected intraperitoneally. The trypomastigote forms were used to infect LLC-MK2 cell cultures consisting of Macaca mulatta kidney epithelial cells (ATCC CCL 7) grown in RPMI-1640 medium containing 2% fetal bovine serum (FBS). The infected cell cultures were maintained in an incubator at 37 °C with 5% CO2, as previously described. , To evaluate the 50% effective concentration (EC50) against the trypomastigote forms of T. cruzi, mixture 1–10 was serially solubilized in the RPMI-1640 culture medium in 96-well plates. Subsequently, the trypomastigote forms of T. cruzi were added, at a concentration of 1 × 10^6 trypomastigotes per well. After an incubation period of 24 h at 37 °C with 5% CO2, to determine the viability of trypomastigotes, 20 μL of 10% Alamar Blue (resazurin) was added, followed by a new incubation of the plates for 20 h under the same conditions. At the end of the tests, the plates were read by absorption using a microplate spectrophotometer (Filter Max F5 Multi-Mode Microplate Reader) at 570 nm, as previously described. Benznidazole was used as a positive control, while cells not subjected to treatment were used as a negative control.

[5] = Cytotoxicity against mammalian cells (MTT); type: cell-based; settings: mouse, NCTC clone 929 fibroblasts, NCTC clone 929 murine fibroblasts
Procedure: The cytotoxicity of the mixture of 1–10 was examined in cells of the NCTC lineage (clone 929) at a density of 6 × 10^4 cells per well. The cells were cultivated in 96-well plates containing different concentrations of the mixture, serially diluted using RPMI 1640 medium supplemented with 10% fetal bovine serum (FBS). Incubation took place over 48 h, in an incubator maintained at 37 °C with 5% CO2. The cell viability of NCTC cells (clone 929) was subsequently evaluated using the MTT colorimetric assay.

[6] = system: trypomastigote forms of T. cruzi; set-up: method as in number not given; settings: previous studies; ref number not given; cited from earlier work
[7] = system: T. cruzi epimastigotes; set-up: method as in number not given; settings: literature data; ref number not given; cited from earlier work
[8] = system: amastigote forms of L. (L.) infantum; set-up: method as in number not given; settings: previous studies; ref number not given; cited from earlier work

CCCC#CC#CCCCCCCCCCCC(=O)O [macrocarpathic acid, 12,14-octadecadiinoic acid]
cytotoxic effect on mammalian cells [1]: cytotoxic effect

CCCCCCCCCCCCCCCCCC(=O)O [stearic acid]
activity against T. cruzi [2]: inactivity

O=C(Cn1ccnc1[N+](=O)[O-])NCc1ccccc1 [benznidazole]
EC50 [3]: 0.9 ± 0.2 µg/mL (≈ 3.46 µM) | EC50 [4]: 3.9 ± 1.2 µg/mL (≈ 15 µM) | CC50 at 48 h [5]: > 200 µg/mL

CCCCCCCCC#CCCCCCCCC(=O)O [9-octadecinoic acid]
activity against trypomastigote forms of T. cruzi [6]: effective results | inhibition of growth of T. cruzi epimastigotes [7]: inhibitory capacity

C=CCCCCCCC#CCCCCCCCCCCCC(=O)O [Compound 2, docos-21-en-13-inoic acid]
in vitro activity against amastigote forms of L. (L.) infantum [8]: in vitro activity
